Laboratory results: US6028102A, “Anticonvulsant drugs and pharmaceutical compositions thereof” (priority 1998, dated 2000)
Where two headings read alike, the source gives them in different places. Peptide text beside a SMILES is read from it. * marks the point of attachment. Cbz = O=C(OCc1ccccc1)*

What was measured:
[1] = mice; Kohn et al 1988, 1990, 1991; Conley and Kohn, 1987; cited from earlier work
[2] = in vivo, cited from earlier work
[3] = Screening of anticonvulsant activity; type: in vivo, mice; settings: for anticonvulsant activity: ip administration (300 mg) to mice; for anticonvulsant activity in words: overall finding of the study
Procedure: Screening of Anticonvulsant Activity
Compounds I-XI were screened in carworth farm #1 mice (ip--in a volume of 0.01 mL/g of body weight) and sprague-Dawley rats (po--in a volume of 0.004 mL/g of body weight) for their anticonvulsant activity and neurotoxicity by the NIH epilepsy Branch [Porter et al, 1984]. The screening procedure involved the following:
1) the maximal electroshock (MES) test, which measures seizure spread; 2) the subcutaneous pentylenetetrazol test (sc Met test) which measures seizure threshold; and 3) the rotored ataxia test which assesses neurotoxicity.
Applicants therefore decided to derivatize glycinamide and the above dipeptides by synthesizing their N-acetyl and N'-benzyl derivatives (compounds IV-VIII). […] Therefore, this compound was further analyzed quantitatively and its ED50 data and protective indices in comparison to phthaloyl glycinamide and valproyl glycinamide--TV 1901 [17] are presented in Table 2. As a consequence of their anticonvulsant activity, the pharmacokinetics of compounds VII and IX were investigated following iv administration (400 mg) to six dogs, and the mean plasma levels of compounds VII and IX are presented in FIGS. 1 and 2, respectively.

[4] = mice and rats / rodents; cited from earlier work
[5] = mice; Freed, 1985; cited from earlier work
[6] = electroshock, metrazole and homocysteine; Freed et al, 1979; cited from earlier work
[7] = Pharmacokinetic analysis following iv administration to dogs; type: in vivo; settings: dog, in vivo
Procedure: The experiments were carried out on six male dogs (mongrels), ranging in weight between 18 and 22 kg. In a randomized cross over design, each dog was injected intravenously (in 1.5 mL of DMSO) with a dose of 400 mg of N-acetyl,N'-benzylglycinamide (VII), 404 mg (on dose equivalent to 400 mg of compound VII) of Z-glycinamide (IX) and 406 mg of Z-glycine (VIII). Urine was collected systematically for 12 hours after dosing, by means of an indwelling catheter.
Venous blood samples (6 mL) were collected via an indwelling catheter (from the cephalic vein) at specified intervals following injection (0, 5, 10, 20, 30, 45 minutes and 1, 1.5, 2, 2.5, 3, 4, 5, 6, 7, 8, 10 and 12 hours respectively). The plasma was then immediately separated by centrifugation at 3000 g for 15 minutes and stored at -20° C. Before each assay, the plasma was allowed to reach room temperature, vortexed, centrifuged and the residual clot removed.
Urine samples were collected via a urine catheter at specified intervals following injection (0, 1, 2, 3, 4, 5, 6, 7, 8, 9, 10 and 12 hours respectively), the samples volume were measured and the urine samples were stored at -20° C. Plasma and urine levels of compounds VII, VIII and IX were then assayed by a HPLC assay described herein below.
HPLC Assay for Monitoring N-acetyl,N'-benzylglycinamide (VII) and N-benzyloxycarbonylglycinamide (IX) in Dog Plasma and Urine
Plasma samples are allowed to reach room temperature, vortexed and centrifuged. The plasma was then assayed as follows:
To 0.5 mL of plasma, 10 μg of an internal standard (N-benzyl-oxycarbonylglycinamide (IX)) and 4 mL of tert-butylmethylether were added. The mixture was vigorously vortexed for 30 seconds, centrifuged for 10 minutes at 3000 g, the organic phase was separated and evaporated to dryness (using a vortex evaporator). To the residue, 80 μl of methanol were added, the mixture was vortexed and 30 μl were injected into the HPLC (Schimadzu SCL-10A with a UV-visible detector model SPD-10A).
Urine samples are allowed to reach room temperature, vortexed and centrifuged. The urine was then assayed as follows:
To 0.25 mL of urine, 10 μg of internal standard (N-benzyl-oxycarbonylglycinamide (IX)), 100 μl of hydrochloric acid solution (1 N) and 4 mL of tert-butylmethylether were added. The mixture was vigorously vortexed for 30 seconds and centrifuged for 10 minutes at 3000 g, the organic phase was separated and transferred to another test tube containing 0.5 mL of sodium hydroxide solution (1N), the mixture was vigorously vortexed for 30 seconds, centrifuged for 10 minutes at 3000 g, the organic phase was separated and evaporated to dryness (using a vortex evaporator). To the residue, 80 μl of methanol were added, the mixture was vortexed and 30 μl were injected into the HPLC.
HPLC conditions: HPLC column; Hypersil ODS (C-18) 5μ, 4.6×150 mm; Wavelength: 258 nm; Mobile phase: 60% water, 40% methanol and 0.01% trifluoroacetic acid.
The same assay was used for monitoring N-benzyloxycarbonyl-glycinamide (IX) in dog plasma and dog urine using N-acetyl,N'-benzylglycinamide as an internal standard.
HPLC Assay for Monitoring Z-glycine (VIII) in Dog Plasma and Urine
To 0.5 mL of plasma, 10 μg of internal standard (Z-GABA), 100 μl of hydrochloric acid solution (1N) and 5 mL of tert-butylmethylether were added. The mixture was vigorously vortexed for 30 seconds, centrifuged for 10 minutes at 3000 g, the organic phase was separated and evaporated to dryness (using a vortex evaporator). To the residue, 100 μl of mobile phase were added, the mixture was vortexed and 30 μl were injected to the HPLC.
Urine samples was allowed to reach room temperature, vortexed and centrifuged. The urine was then assayed as follows:
To 0.1 mL of urine, 30 μg of internal standard (Z-GABA) and 5 mL of tert-butylmethylether were added. The mixture was vigorously vortexed for 30 seconds, centrifuged for 10 minutes at 3000 g, the organic phase was separated off. […]

[8] = rats; Lambert et al. [1994]; cited from earlier work
[9] = ip, mice; data from Salach et al (1994), Hadad and Bialer (1995); cited from earlier work
[10] = ip, mice, cited from earlier work; for sc Met, ED50: data from Salach et al (1994), Hadad and Bialer (1995)
[11] = dogs, iv, mean, Table 3, cited from earlier work; for CL / MRT / Vss / Vβ / t1/2: data from Salach et al 1994, Hadad and Bialer 1995
[12] = ip, mice; data from Salach et al (1994), Hadad and Bialer (1995); cited from earlier work; remark: listed apart in the source

## CC(=O)N[C@@H](C(=O)NCc1ccccc1)c1ccc[nH]1 (racemic) [(R,S)-2-acetamido-N-benzyl-2-pyrolacetamide]
[1]
  anticonvulsant activity in MES test: more potent than the analogous alanine and phenylglycine derivatives

## CC(=O)NC(C)C(=O)NCc1ccccc1 (racemic) [N-acetyl,N'-benzyl DL-alaninamide]
[1]
  anticonvulsant activity in MES test: marked anticonvulsant activity

## CC(=O)NC(C(=O)NCc1ccccc1)c1ccccc1 (racemic) [N-acetyl,N'-benzyl DL-phenyl glycinamide]
[1]
  anticonvulsant activity in MES test: marked anticonvulsant activity

## NCCCC(=O)O [GABA]
[2]
  effect upon oral or systemic administration: neither GABA nor glycine are effective upon oral or systemic administration
  blood-brain barrier passage: inability to cross the blood brain barrier

## NCC(=O)NCC(=O)O [I, Glycylglycine] (H-Gly-Gly-OH)
[3]
  anticonvulsant activity: did not show anticonvulsant activity

## NCC(=O)NCC(N)=O [II, Glycylglycinamide]
[3]
  anticonvulsant activity: did not show anticonvulsant activity

## NCCCC(=O)NCC(N)=O [III, Gaboylglycinamide]
[3]
  anticonvulsant activity: did not show anticonvulsant activity

## CCC=C(CCC)C(=O)NCC(N)=O [N-2-enevalproyl glycinamide]
[4]
  anticonvulsant activity in words: good anticonvulsant activity in rodents

## O=C(O)CNC(=O)CNC(=O)OCc1ccccc1 [X, N-benzyloxycarbonyl glycylglycine] (Cbz-Gly-Gly-OH)
[3]
  anticonvulsant activity in words: inactive as anticonvulsant

## NC(=O)CNC(=O)CNC(=O)OCc1ccccc1 [XI, N-Benzyloxycarbonyl Glycylglycinamide] (Cbz-Gly-Gly-NH2)
[3]
  anticonvulsant activity in words: inactive as anticonvulsant

## C[N+](C)(C)CC(=O)O [betaine, N,N,N-trimethyl glycine]
[5]
  antagonism of strychnine-induced seizures: antagonized
[6]
  block of induction of convulsions: block the induction of convulsions

## CC(=O)NCC(=O)NCC(N)=O [compound VI, N-Acetylglycylglycinamide]
[3]
  anticonvulsant activity in words: inactive as anticonvulsant

## O=C(O)CNC(=O)OCc1ccccc1 [compound VIII, N-benzyloxycarbonylglycine]
[7]
  fm (fraction metabolized of Z-glycinamide to Z-glycine): 80.1 ± 13.6%
  half-life: 0.6 ± 0.14 h
  pharmacokinetics and elimination in words: its t1/2 was the shortest
[7]; 720 min
  Mu/D (fraction of Z-glycine excreted in the urine as a metabolite of Z-glycinamide): 20 ± 19.8%
[7]; CL
  clearance: 90 mL/min
[7]; MRT
  MRT: 0.8 ± 0.1 h
[7]; VSS / volume of distribution
  Vd: 0.2 L/kg
[7]; Vss
  Vd: 4.9 ± 0.6 L
[7]; Vβ
  Vd: 4.5 ± 0.8 L
[8]
  anticonvulsant activity relative to glycine: far more active than glycine
[3]
  anticonvulsant activity in words: lack of activity
[3]; listed as Z-glycine
  anticonvulsant activity in words: inactive in this study

## CC(C)C(C(=O)NCC(N)=O)C(C)C [diisopropyl acety glycinamide]
[4]
  anticonvulsant activity in words: good anticonvulsant activity in rodents

## CN(C)CC(=O)O [dimethylglycine]
[5]
  antagonism of strychnine-induced seizures: antagonized

## NCC(=O)O [glycine]
[2]
  effect upon oral or systemic administration: neither GABA nor glycine are effective upon oral or systemic administration
  blood-brain barrier passage: does not readily cross the blood-brain barrier

## NC(=O)CN1C(=O)c2ccccc2C1=O [phthaloyl glycinamide, phthaloylglycinamide]
[9]
  Neurotoxicity, TD50: > 600 mg/kg
[10]
  sc Met, ED50: > 400 mg/kg
[11]
  CL: 9 L/h
  MRT: 4.6 ± 0.9 h
  Vss: 46 ± 13 L
  Vβ: 48 ± 13 L
  t1/2: 3.4 ± 0.7 h
[11]; data from Salach et al 1994, 720 min
  fe (fraction excreted unchanged in urine): 7.0 ± 0.7%
[12]
  MES, ED50: 94 mg/kg
  PI, MES (Protective index, ratio of TD50 to ED50): > 64

## CNCC(=O)O [sarcosine, N-methylglycine]
[5]
  antagonism of strychnine-induced seizures: antagonized

## CC1(C)C(C(=O)NCC(N)=O)C1(C)C [tetramethylcyclopropylcarbonyl glycinamide]
[4]
  anticonvulsant activity in words: good anticonvulsant activity in rodents

## CCC(C)C(CC)C(=O)NCC(N)=O (centres unmarked) [valnoctyl glycinamide]
[4]
  anticonvulsant activity in words: good anticonvulsant activity in rodents

## CCCC(CCC)C(=O)NCC(N)=O [valproyl glycinamide, N-valproyl glycinamide]
[4]
  anticonvulsant activity in words: good anticonvulsant activity in both mice and rats
[10]; data from Hadad and Bialer (1995)
  PI, sc Met (Protective index, ratio of TD50 to ED50): 2.9
[10]
  sc Met, ED50: 127 mg/kg
[11]
  CL: 3 ± 0.8 L/h
  MRT: 4.6 ± 0.7 h
  Vss: 12 ± 3 L
  Vβ: 11 ± 3 L
  t1/2: 2.7 ± 0.5 h
[12]
  MES, ED50: 152 mg/kg
  PI, MES (Protective index, ratio of TD50 to ED50): 2.4
